Data as given in paper PMC5397059, “Design, synthesis and structure-activity relationship study of wollamide B; a new potential anti TB agent” (PLoS ONE, 2017).
Values after ≈ are worked out from the molar mass of the structure shown. Like-named read-outs stand apart in the source and are kept apart here. Non-standard residues stand in square brackets, D forms with d. Residues, ends and D or L forms follow the SMILES beside them. *: point of attachment. NMeV = CN[C@H](C(=O)O)C(C)C; dOrn = NCCC[C@@H](N)C(=O)O; tBu = CC(C)(C)*

Columns and labels:
[1] = Artificial membrane permeability assay; assay type: in vitro ADME; settings: PAMPA, pH 7.4; passive artificial membrane permeability; read-out: Permeability
Method: A 8% L-a-phosphatidylcholine (EPC) in 1% cholesterol decane solution and a 1.8% EPC in cholesterol decane solution were prepared. The lipid solution was then aliquoted into 4 mL capped vials, sealed with parafilm and stored in-20°Cfreezer. The lipid solution was then transferred from 4 mL vial into 96-well half area plate (130μL/well) for daily assay usage. An additional 50 mM phosphate buffer with 0.5% encapsin, pH at 7.4 was prepared. The assay was run by the Biomek FX and Biomek software. The assay procedure is written under the Biomek software. For one batch assay, it can test two 96-well sample plates with at least one standard on each sample plate. The total assay time was about 4 hours. 3.5 μL of lipid solution were added to the filler plate, shaken for 12 seconds, and 250 μL of buffer were added to donor side and 100 μL to the receiver side. The assay plate was shaken for 45 min before adding the compounds. The test compounds (2.5 μL) were added to the donor side. The assay was run as replicates: Assay plates1 and 2 tested the sample plate 1; assay plates 3 and 4 tested the sample plate 2. The assay plates were then incubated and shaken for 3 hours at room temperature.
The assay samples were transferred to the HPLC analysis plates and 100 μL of receiver solution were aspirated and transferred to the receiver for analysis. Similarly, another 100 μL from the donor solution were transferred to the donor analysis plate.
Compound concentration was measured by HPLC at different time-points and permeability was established as nm/sec.

[2] = Intrinsic clearance (CLint) assay, human liver microsomes; assay type: in vitro ADME; settings: for CLint Human: human liver microsomes; for half-life at 0.5 µM: human, pooled human liver microsomes, pH 7.4, human liver microsomes, read-out: Microsomal t1/2 Human; for % LBF Human: liver blood flow; for CLpred Human: predicted metabolic clearance
Method: (§1) Pooled mouse and human liver microsomes are purchased from Xenotech. Microsomes (final protein concentration 0.5 mg/mL, MgCl2 (final concentration = 5 mM) and test compound (final substrate concentration = 0.5] M; final DMSO concentration = 0.5%) in 0.1 M phosphate buffer pH 7.4 are pre-incubated at 37°C prior to the addition of NADPH (final concentration = 1 mM) to initiate the reaction. The final incubation volume is 600 μL.
(§2) Control incubation is included for each compound tested where 0.1 M phosphate buffer pH 7.4 is added instead of NADPH (minus NADPH). One control compound is included with each species. All incubations are performed singularly for each test compound. Each compound is incubated for 45 minutes and samples (100 μL) of incubate are taken at 0, 5, 15, 30 and 45 min. The control (minus NADPH) is sampled at 30 min only. The reactions are stopped by the addition of sample to 200 μL Acetonitrile: Methanol 3:1 containing internal standard. The terminated samples are centrifuged at 2,500 rpm for 20 min at 4°C to precipitate the protein. Quantitative analysis: following protein precipitation, the samples were analyzed using specific LC-MS/MS conditions. Data analysis: from a plot of ln peak area ratio (compound peak area/internal standard peak area) against time, the gradient of the line was determined. Subsequently, half-life and intrinsic clearance were calculated using the equations below: Eliminationrateconstant(K)=(−gradient) Halflife(t1/2)(min)=0.693/K Cli(mL/min/gprotien)=V×0.693/t1/2 WhereV=Incubationvolume(mL/gmicrosomalprotien)

[3] = Intrinsic clearance (CLint) assay, mouse liver microsomes; assay type: in vitro ADME; settings: for % LBF Mouse: liver blood flow; for CLint Mouse: mouse liver microsomes; for half-life at 0.5 µM: mouse, pooled mouse liver microsomes, pH 7.4, read-out: Microsomal t1/2 Mouse; for CLpred Mouse: predicted metabolic clearance
Method: as §1, §2

[4] = Chemi-Luminescent Nitrogen Detection (CLND) kinetic solubility assay; assay type: physicochemical; settings: phosphate buffered saline, pH 7.4; kinetic aqueous solubility by CLND; read-out: Solubility
Method: GSK in-house kinetic solubility assay: 5 μL of 10mM DMSO stock solution diluted to 100 uL with pH7.4 phosphate buffered saline, equilibrated for 1 hour at room temperature, filtered through Millipore Multiscreen HTS-PCF filter plates (MSSL BPC).
The filtrate is quantified by suitably calibrated flow injection CLND. The standard error of the CLND solubility determination is ±30 μM, the upper limit of the solubility is 500 μM when working from 10 mM DMSO stock solution.

human serum albumin = human serum albumin (Homo sapiens, UniProt P02768); test: Human serum albumin (HSA) binding assay; assay type: in vitro ADME; settings: human serum albumin binding
Method: HSA binding assay was performed according to the method described by Valko K, et al. The basic principle of the measurements is the determination of gradient retention times of compounds on immobilized HSA column and converting these retention times to the appropriate property values using calibration. The peaks are detected and identified by UV. Calibration sets of compounds are measured before each run for which the HSA binding values are known. The retention times of the calibration set of compounds are plotted against these known values. The slope and the intercept of the obtained straight lines are used to calculate the HSA binding for the unknown compounds.

Chrom logD assay = assay type: physicochemical; settings: pH 7.4, read-out: Log D
Method: The Chromatographic Hydrophobicity Index (CHI) values were measured using a reversed phase HPLC column (50 x 2 mmx 3 μMGemini NX C18, Phenomenex, UK) with fast acetonitrile gradient at starting mobile phase of 100% pH = 7.4 buffer. CHI values are derived directly from the gradient retention times by using a calibration line obtained for standard compounds. The CHI value approximates to the volume % organic concentration when the compound elutes. CHI is linearly transformed into ChromlogD by the formula: ChromlogD=0.0857CHI−2.00
The average error of the assay is ±3 CHI unit or ±0.25 ChromlogD.

[5] = amide bond, 18-membered ring, HATU/HOBt/DIEA
[6] = reversed phase HPLC column (Gemini NX C18)

Sequence of human serum albumin (P02768 25-609): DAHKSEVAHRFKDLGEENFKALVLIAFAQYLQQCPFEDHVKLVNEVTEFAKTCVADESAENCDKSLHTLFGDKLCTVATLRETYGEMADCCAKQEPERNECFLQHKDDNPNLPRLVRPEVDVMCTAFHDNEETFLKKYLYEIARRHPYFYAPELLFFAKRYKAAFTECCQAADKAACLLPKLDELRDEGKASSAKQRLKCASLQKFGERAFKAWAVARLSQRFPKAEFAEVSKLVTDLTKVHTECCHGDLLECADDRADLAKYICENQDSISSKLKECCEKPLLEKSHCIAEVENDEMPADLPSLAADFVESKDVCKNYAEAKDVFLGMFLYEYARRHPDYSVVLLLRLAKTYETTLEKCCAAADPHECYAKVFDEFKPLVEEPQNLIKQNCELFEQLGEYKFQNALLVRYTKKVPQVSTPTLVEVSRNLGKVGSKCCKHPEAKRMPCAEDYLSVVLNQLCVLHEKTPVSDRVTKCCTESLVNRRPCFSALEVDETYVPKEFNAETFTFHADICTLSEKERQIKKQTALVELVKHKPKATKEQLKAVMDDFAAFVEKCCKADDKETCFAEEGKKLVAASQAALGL

| Compound | Papp at 3 h [1] [×10⁻⁶ cm/s] | CLint Human [2] [mL/min/g tissue] | half-life at 0.5 µM [2] [h] | % LBF Human [2] [%] | CLpred Human [2] [mL/min/kg] | % LBF Mouse [3] [%] | CLint Mouse [3] [mL/min/g tissue] | half-life at 0.5 µM [3] [h] | CLpred Mouse [3] [mL/min/kg] | solubility kinetic at 1 h [4] [µg/mL] | % HSA (human serum albumin) [%] | chromatographic logD (Chrom logD assay; [6]) | chromatographic logD (Chrom logD assay) | ring closure, isolated yield ([5]; from H-Trp(Boc)-Leu-dLeu-Ile-Ser(tBu)-dOrn(Boc)-OH) [%] | ring closure, isolated yield ([5]; from H-Trp(Boc)-Leu-dMeLeu-Val-MeAsn(Trt)-dOrn(Boc)-OH) [%] | ring closure, isolated yield ([5]; from H-Val-MeAsn(Trt)-dOrn(Boc)-Trp(Boc)-MeLeu-dLeu-OH) [%] | ring closure, isolated yield [5] [%] |
| --- | --- | --- | --- | --- | --- | --- | --- | --- | --- | --- | --- | --- | --- | --- | --- | --- | --- |
| CC[C@H](C)[C@@H]1NC(=O)[C@@H](CC(C)C)NC(=O)[C@H](CC(C)C)NC(=O)[C@H](Cc2c[nH]c3ccccc23)NC(=O)[C@@H](CCCN)NC(=O)[C@H](CO)NC1=O [Compound 10c] (cyclo(IS[dOrn]WL[dL])) | < 1 | 9.77 | 0.0938 | 93.00 | 16.70 | <16.3 | <0.48 | > 2.31 | <20.50 | ≥ 228 | 86.47 | 2.16 |  |  |  |  |  |
| CC[C@H](C)[C@@H]1NC(=O)[C@@H](CC(C)C)NC(=O)[C@H](CC(C)C)NC(=O)[C@H](Cc2c[nH]c3ccccc23)NC(=O)[C@@H](CCCN)NC(=O)[C@H](COC(C)(C)C)NC1=O [Compound 11c] (cyclo(IS(tBu)[dOrn]WL[dL])) | < 0.3 | 3.33 | 0.276 | 81.90 | 14.70 | <16.3 | <0.48 | > 2.31 | <20.50 | 202 (≈ 258 µM) | 92.68 | 3 |  |  |  |  |  |
| CC[C@H](C)[C@@H]1NC(=O)[C@@H](CC(C)C)NC(=O)[C@H](CC(C)C)NC(=O)[C@H](Cc2c[nH]c3ccccc23)NC(=O)[C@@H](CCCNC(=N)N)NC(=O)[C@H](CC(N)=O)NC1=O [Compound 13c] (cyclo(IN[dR]WL[dL])) | 1.1 | 7.44 | 0.123 | 91.01 | 16.38 | 29.00 | 1.01 | 1.05 | 36.60 | ≥ 189 | 87.55 |  | 2.05 |  |  |  |  |
| COc1ccc(C[C@@H]2NC(=O)[C@@H](CCCN)NC(=O)[C@H](CC(N)=O)NC(=O)[C@H](C(C)C)NC(=O)[C@@H](CC(C)C)NC(=O)[C@H](CC(C)C)NC2=O)cc1 [Compound 15c] (cyclo(L[dL]VN[dOrn]Y(Me))) | < 1 | <0.40 | > 2.31 | <35.08 | <6.35 | 24.00 | 0.78 | 1.43 | 30.20 | ≥ 189 | 46.55 | 1.73 |  |  |  |  |  |
| CC(C)C[C@@H]1NC(=O)[C@H](Cc2c[nH]c3ccccc23)NC(=O)[C@@H](CCCN)NC(=O)[C@H](CC(N)=O)NC(=O)[C@H](C(C)C)N(C)C(=O)[C@@H](CC(C)C)NC1=O [Compound 22c] (cyclo(L[dL][NMeV]N[dOrn]W)) | < 1 | <0.40 | > 2.31 | <35.08 | <6.35 | <16.3 | <0.48 | > 2.31 | <20.50 | ≥ 153 | 73.98 | 1.96 |  |  |  |  |  |
| CC[C@H](C)[C@@H]1NC(=O)[C@@H](CC(C)C)NC(=O)[C@H](CC(C)C)NC(=O)[C@H](Cc2cn(C(=O)OC(C)(C)C)c3ccccc23)NC(=O)[C@@H](CCCNC(=O)OC(C)(C)C)NC(=O)[C@H](COC(C)(C)C)NC1=O [cyclo(Trp(Boc)-Leu-D-Leu-Ile-Ser(tBu)-D-Orn(Boc))] |  |  |  |  |  |  |  |  |  |  |  |  |  | 68 |  |  |  |
| CC(C)C[C@@H]1NC(=O)[C@H](Cc2cn(C(=O)OC(C)(C)C)c3ccccc23)NC(=O)[C@@H](CCCNC(=O)OC(C)(C)C)NC(=O)[C@H](CC(=O)NC(c2ccccc2)(c2ccccc2)c2ccccc2)N(C)C(=O)[C@H](C(C)C)NC(=O)[C@@H](CC(C)C)N(C)C1=O [cyclo(Trp(Boc)-Leu-N-Me-D-Leu-Val-N-Me-Asn(Trt)-D-Orn(Boc))] |  |  |  |  |  |  |  |  |  |  |  |  |  |  | 60 |  |  |
| CC(C)C[C@H]1NC(=O)[C@H](CC(C)C)N(C)C(=O)[C@H](Cc2cn(C(=O)OC(C)(C)C)c3ccccc23)NC(=O)[C@@H](CCCNC(=O)OC(C)(C)C)NC(=O)[C@H](CC(=O)NC(c2ccccc2)(c2ccccc2)c2ccccc2)N(C)C(=O)[C@H](C(C)C)NC1=O [cyclo(Val-N-Me-Asn(Trt)-D-Orn(Boc)-Trp(Boc)-N-Me-Leu-D-Leu)] |  |  |  |  |  |  |  |  |  |  |  |  |  |  |  | 80 |  |
| cyclo(D-Phe(4-Cl)-D-Orn(Boc)-Asn(Trt)-Val-D-Leu-Leu) |  |  |  |  |  |  |  |  |  |  |  |  |  |  |  |  | 43 |
